Assay results from patent US20170165286A1, “COMPOSITIONS AND METHODS FOR TREATING DIABETES AND LIVER DISEASES” (Cempra Pharmaceuticals, Inc., priority 2014, published 2017).

Experiments:
[1] = tested on: BLM-induced pulmonary fibrosis model mice; assay: Bleomycin-induced lung injury: BALF analysis, body weight; type: in vivo; conditions: for BALF Eosinophil / BALF Lymphocytes / BALF Macrophages / BALF Neutrophil / BALF Total cells: oral q.d. day −2 to 6
Experimental: Bleomycin-Induced Lung Injury. Lung inflammation is induced in female mice by a single intratracheal administration of bleomycin. Twenty mice are divided into two groups. […] It is to be understood herein that 100 mg/kg in mice is generally considered to be equivalent to a 450-500 mg, such as 480 mg, dose in humans. Animals are sacrificed on Day 7.
(§1) Pathogen-free 7 weeks old female C57BL/6J mice are obtained from CLEA Japan (Tokyo, Japan) and allowed to acclimate at least 6 days. On day 0, twenty mice are induced to develop pulmonary fibrosis by a single intratracheal administration of bleomycin sulphate (BLM, Nippon Kayaku, Japan) in 0.9% saline in a volume of 50 μL per animal using a Microsprayer® (Penn-Century, USA). Individual body weight is measured daily during the experiment period. Survival, clinical signs and behavior of mice is monitored daily.
Solithromycin Reduces Inflammation In Mice Caused By Bleomycin-Induced Lung Injury. Pulmonary fibrosis is a problem in the management of patients who have received chemotherapy for malignancies particularly with regimens that contain bleomycin (BLM), methotrexate, cyclophosphamide, and many new agents. These patients are susceptible to pulmonary infections as well as to inflammation from pulmonary injury. […] The effects of solithromycin on the ability to prevent lung inflammation and fibrosis is described in a bleomycin induced-lung inflammation and fibrosis model. Group 1 (BLM-Vehicle): Ten BLM-induced pulmonary fibrosis model mice are orally administered vehicle (Carboxymethyl cellulose) at a volume of 10 mL/kg once daily from day −2 (two days before BLM administration) to day 6. […]
BALF samples were collected by flushing the lung via the trachea with sterile PBS three times (0.8 mL each). The first lavage was kept separate from the other two. BALF was centrifuged at 1,000×g for 3 minutes at 4° C. and the supernatant was collected and stored at −80° C. until use. The cell pellet from the first fraction and the remaining fractions of lavage fluid were pooled. Total cell number of BALF was counted with a hemocytometer and the cell differentials were determined by cytospin preparation stained with Diff-Quick (Sysmex, Japan). A differential cell count was performed on up to about 200 cells.
MMP-9 in the BALF was quantified by the Mouse Total MMP-9 Quantikine ELISA Kit (R&D Systems, USA).
Analyses of BALF (bronchoalveolar lavage fluid). The cells in BALF are counted with a hemocytometer, and cell differentials are determined in cytospin preparations stained with Diff-Quik (Sysmex, Japan) MMP-9 in the supernatants from BALF are quantified by an enzyme-linked immunosorbent assay (ELISA; Cat# MMPT90, R&D Systems, USA). Histopathological assays for lung sections are performed according to standard methods. Masson's Trichrome staining and estimation of Ashcroft Score includes HE staining. Gene expression assays using total RNA from the lung are obtained using real-time RT-PCR analyses performed for TNF-α, MCP-1 and MMP-9.

[2] = tested on: BLM-induced pulmonary fibrosis model mice; assay: Bleomycin-induced lung injury: lung histopathology (Masson's Trichrome, Ashcroft score, HE); type: in vivo
Experimental: Bleomycin-Induced Lung Injury. Lung inflammation is induced in female mice by a single intratracheal administration of bleomycin. Twenty mice are divided into two groups. From Day −2 to Day 6, one group is administered vehicle and the other is administered test drug, such as solithromycin orally at a dose of 100 mg/kg. It is to be understood herein that 100 mg/kg in mice is generally considered to be equivalent to a 450-500 mg, such as 480 mg, dose in humans. Animals are sacrificed on Day 7.
as §1
Solithromycin Reduces Inflammation In Mice Caused By Bleomycin-Induced Lung Injury. […]
Histopathological Analyses. […] The degree of pulmonary fibrosis was evaluated using the Ashcroft score (4) for the quantitative histological analysis.

[3] = bleomycin mice, heading says 50 mg/kg q.d.
[4] = bleomycin mice, heading says 50 mg/kg q.d., listed as SOLI

CC[C@H]1OC(=O)[C@@](C)(F)C(=O)[C@H](C)[C@@H](O[C@@H]2O[C@H](C)C[C@H](N(C)C)[C@H]2O)[C@](C)(OC)C[C@@H](C)C(=O)[C@H](C)[C@H]2N(CCCCn3cc(-c4cccc(N)c4)nn3)C(=O)O[C@]12C [solithromycin]
MMP-9 expression ([1]; bleomycin mice BALF (ELISA), heading says 50 mg/kg q.d.): decreasing trend | Body weight changes compared to vehicle group ([1]; bleomycin mice, any day and day of sacrifice): no significant differences | BALF Eosinophil [1, 3]: significantly decreased | BALF Lymphocytes [1, 3]: significantly decreased | BALF Macrophages [1, 3]: no significant difference | BALF Neutrophil [1, 3]: significantly decreased | BALF Total cells [1, 3]: significantly decreased | BALF Eosinophil [1, 4]: 0.3 ± 0.2 × 10^4 | BALF Lymphocytes [1, 4]: 3.9 ± 1.9 × 10^4 | BALF Macrophages [1, 4]: 16.9 ± 9.6 × 10^4 | BALF Neutrophil [1, 4]: 0.7 ± 0.4 × 10^4 | BALF Total cells [1, 4]: 2.2 ± 1.2 × 10^5 | HE staining: alveolar wall thickening, diffuse alveolar destruction, inflammatory cell infiltration vs vehicle [2]: no obvious differences | Ashcroft score ([2]; vehicle 1.6±0.2): 1.4±0.5
